Results published in ChEMBL document CHEMBL4665763, “Molecular Networking-Guided Discovery and Characterization of Stechlisins, a Group of Cyclic Lipopeptides from a Pseudomonas sp” (2020).
In brackets after ≈: the same amount, converted by molar mass. Activity calls are given as the source filed them. The rule behind the calls is not given here.

Tested on: Moraxella catarrhalis
Assay: Antimicrobial activity against Moraxella catarrhalis FH6810 after 18 hrs by micro broth dilution assay
Type: functional

Row | Compound | MIC [µg/mL] | Activity
1 | CCCCCCCCC[C@H](O)CC(=O)N[C@H](CC(C)C)C(=O)N[C@H](CC(=O)O)C(=O)N[C@H]1C(=O)N[C@H](CC(C)C)C(=O)N[C@H](CC(C)C)C(=O)N[C@H](CO)C(=O)N[C@@H](CC(C)C)C(=O)N[C@H](CCC(N)=O)C(=O)N[C@@H](CC(C)C)C(=O)N[C@@H]([C@@H](C)CC)C(=O)N[C@@H](CCC(=O)O)C(=O)O[C@@H]1C | 4 (≈ 2.78 µM) | 
2 | CCCCC[C@H](O)CC(=O)N[C@H](CC(C)C)C(=O)N[C@H](CC(=O)O)C(=O)N[C@H]1C(=O)N[C@H](CC(C)C)C(=O)N[C@H](CC(C)C)C(=O)N[C@H](CO)C(=O)N[C@@H](CC(C)C)C(=O)N[C@H](CCC(N)=O)C(=O)N[C@@H](CC(C)C)C(=O)N[C@@H]([C@@H](C)CC)C(=O)N[C@@H](CCC(=O)O)C(=O)O[C@@H]1C |  | inactive
3 | CCCCCCC[C@H](O)CC(=O)N[C@H](CC(C)C)C(=O)N[C@H](CC(=O)O)C(=O)N[C@H]1C(=O)N[C@H](CC(C)C)C(=O)N[C@H](CC(C)C)C(=O)N[C@H](CO)C(=O)N[C@@H](CC(C)C)C(=O)N[C@H](CCC(N)=O)C(=O)N[C@@H](CC(C)C)C(=O)N[C@@H]([C@@H](C)CC)C(=O)N[C@@H](CCC(=O)O)C(=O)O[C@@H]1C | 32 (≈ 22.7 µM) | 
4 | CCCCCCC[C@H](O)CC(=O)N[C@H](CC(C)C)C(=O)N[C@H](CC(=O)O)C(=O)N[C@H]1C(=O)N[C@H](CC(C)C)C(=O)N[C@H](CC(C)C)C(=O)N[C@H](CO)C(=O)N[C@@H](CC(C)C)C(=O)N[C@H](CCC(N)=O)C(=O)N[C@@H](CC(C)C)C(=O)N[C@@H](C(C)C)C(=O)N[C@@H](CCC(=O)O)C(=O)O[C@@H]1C | > 128 | 

Further lines, with some results ahead:

Row | MIC [µg/mL] | Compound | Activity
5 | > 128 | CCCCC[C@H](O)CC(=O)N[C@H](CC(C)C)C(=O)N[C@H](CCC(=O)O)C(=O)N[C@H]1C(=O)N[C@H](CC(C)C)C(=O)N[C@H](CC(C)C)C(=O)N[C@H](CO)C(=O)N[C@@H](CC(C)C)C(=O)N[C@H](CCC(N)=O)C(=O)N[C@@H](CC(C)C)C(=O)N[C@@H](CC(C)C)C(=O)N[C@@H](CCC(=O)O)C(=O)O[C@@H]1C | 
6 | > 128 | CCCCCCC[C@H](O)CC(=O)N[C@H](CC(C)C)C(=O)N[C@H](CC(=O)O)C(=O)N[C@H]1C(=O)N[C@H](CC(C)C)C(=O)N[C@H](CC(C)C)C(=O)N[C@H](CO)C(=O)N[C@@H](CC(C)C)C(=O)N[C@H](CCC(N)=O)C(=O)N[C@@H](CC(C)C)C(=O)N[C@@H](CC(C)C)C(=O)N[C@@H](CCC(=O)O)C(=O)O[C@@H]1C | 
7 | > 128 | CCCCCCC[C@H](O)CC(=O)N[C@H](CC(C)C)C(=O)N[C@H](CCC(=O)O)C(=O)N[C@H]1C(=O)N[C@H](CC(C)C)C(=O)N[C@H](CC(C)C)C(=O)N[C@H](CO)C(=O)N[C@@H](CC(C)C)C(=O)N[C@H](CCC(N)=O)C(=O)N[C@@H](CC(C)C)C(=O)N[C@@H]([C@@H](C)CC)C(=O)N[C@@H](CCC(=O)O)C(=O)O[C@@H]1C | 
